Experimental data: patent publication US10213451B2, “Methods and compounds for modulating the secretion or expression of adhesion proteins or angiopoietins of cells” (PACIFIC ARROW LIMITED, priority 2004, dated 2019)
Values after ≈ are worked out from the molar mass of the structure shown. Where two headings read alike, the source gives them in different places.

Experiments:
[1] = test system: Fibronectin secretion from lung carcinoma cells (H460); assay: Fibronectin secretion (Western blot), H460 cells; assay type: cell-based, human; settings: 10 ug/ml
[2] = test system: Fibronectin secretion from liver HepG2 cells; assay: Fibronectin secretion (Western blot), HepG2 cells; assay type: cell-based, human; settings: 10 ug/ml; for % inhibition of Fibronectin secretion: HepG2 cells
[3] = test system: Fibronectin secretion from bladder carcinoma cells (HTB-9); assay: Fibronectin secretion (Western blot), HTB-9 cells; assay type: cell-based, human; settings: 10 ug/ml
[4] = test system: Fibronectin secretion from ES2 cells; assay: Fibronectin secretion (Western blot), ES2 cells; assay type: cell-based, human; settings: for inhibition at 10 µg/mL: Homo sapiens, ES-2, ES2 cells; for Fibronectin secreted into medium, % of DMSO control: 24 hours
Description: Inhibition of Fibronectin secretion is physiological and the determination of its quantity is based on the following criteria: • 1. Fibronectin is secreted from viable cells. Only cell with over 85% viable cells after drug-treatment are employed in these experiments. The viable cells were determined by MTT assay. • 2. For comparison, the immuno-band intensity from each samples are normalized with cell mass. The cell mass was determined by the MTT assay and is assigned as a MTT unit for each cell sample.
Cells: ES2 cells were grew in T-25 flask with RPMI 1640 medium over night before drug-treatment. Drug-treatment: cells cultures were replaced with fresh RPMI medium with Xanifolia-Y (10 ug/ml final concentration) or DMSO (as control) at 0 hour. At 1, 2, 4, 8 and 24 hour, aliquot of culture medium was taken out for Fibronectin determination. Fibronectin was determined by Western blot with monoclonal antibody (SIGMA) specific to human Fibronectin only.
Drug-treatment: cells cultures were replaced with fresh RPMI medium containing Xanifolia-Y (10 ug/ml final concentration) or DMSO (as control) at 0 hour. At 4 hours (A) or 8 hour (B), culture medium was replaced with fresh culture medium without drug. At 2, 4, 8 and 24 hour, aliquot of culture medium was taken out for Fibronectin determination. Fibronectin (FN) was determined by Western blot with monoclonal antibody (SIGMA) specific only to human Fibronectin.
(§1) Drug-treatment: cells cultures were replaced with fresh RPMI medium containing Xanifolia-Y (10 ug/ml final concentration) or DMSO (as control) at 0 hour. At 2, and 18 hour, aliquot of culture medium was taken out for Fibronectin determination (Western blot method). Cell viability at 18 hours was determined by MTT assay. Cultures were replaced with RPMI medium with MTT and incubated for an hour. The formation of formazan was dissolved in DMSO and OD at 570 nm was measured.
Cells and Drug-treatment: same as previous experiments. After 7 or 24 hours, aliquot of culture medium was taken out for Fibronectin determination (Western blot method). Cell viability at 24 hours was determined by MTT assay.
Cells: ES2 cells were grew in RPMI 1640 medium over night before drug-treatment. Drug-treatment: cells cultures were replaced with fresh RPMI medium containing DMSO (as control) [D]; Xanifolia-Y (10 ug/ml) [Y]; or Paclitaxel 10 or 50 ng/ml [T10, ro T50]. After 24 hours, aliquot of culture medium was taken out for Fibronectin determination (Western blot method). Cell viability at 24 hours was determined by MTT assay.
The amount of Fibronectin secreted by cells into medium was determined by Western blot assay. The amount of Fibronectin secreted per cells basis was determined by dividing the Western-band intensity with the MTT unit.
Western Blot: Spent culture medium (0.6 ml) was mixed with SDS sample buffer (0.2 ml), boiled for 3 minutes before loading to SDS gel. Samples (60 ul/lane) were applied to a 6% SDS gel and electrophoresis was conducted with 100 volts for 2 hours. Protein was transferred to a nitrocellulose paper electrophoretically (30 min at 100 volts). The Western blot was incubated with the first antibody (mouse anti-FN, specific to human FN, SIGMA F0916) and second antibody (Anti-mouse IgG AP conjugated, Promega S3721). The immunobands were developed with BCIP/NBT color development system (Promega S3771).

[5] = test system: Fibronectin secretion from brain glioblastoma T98G cells; assay: Fibronectin secretion (Western blot), T98G cells; assay type: cell-based, human
[6] = test system: Fibronectin secretion from skin SK-Mel-5 cells; assay: Fibronectin secretion (Western blot), SK-MEL-5 cells; assay type: cell-based, human
ES2(ovarian) cells = assay: MTT assay ES2; assay type: cell-based, human; settings: for viable cells by MTT units vs DMSO control: 24 hours
Description: (§2) MTT Assay. The procedure for MTT assay followed the method described by Carmichael et al. (1987) with modifications. The cells were seeded into a 96-well plate at concentration of 10,000/well for HTB-9, HeLa, H460, HCT116, T98G and OVCAR-3), 15,000/well for DU145, MCF-7, HepG2 and U2OS), and 40,000/well for K562 for 24 hours before drug-treatment. The cells were then exposed to the drugs for 48 hours (72 hours for HepG2 and U2OS, and 96 hours for MCF-7). After the drug-treatment, MTT (0.5 mg/mL) was added to cultures and incubated for an hour. The formazan (product of the reduction of tetrazolium by viable cells) formed and was dissolved with DMSO and the O.D. at 490 nm, and was measured by an ELISA reader. The MTT level of the cells before drug-treatment was also measured (T0). The % cell-growth (% G) is calculated as: % G=(TD−T0/TC−T0)×100(1), where TC or TD represents O.D. readings of control or drug-treated cells. When T0>TD, then the cytotoxicity (LC) expressed as % of the control is calculated as: % LC=(TD−T0/T0)×100(2).
Methods: ES2 cells were exposed to (i) Xanifolia-Y with concentrations of 40, 20, 10, 5, 2.5, and 1.25 ug/ml; or (ii) Paclitaxel with concentrations of […]; or (iii) Combined Xanifolia-Y and Paclitaxel with concentrations of each drug in same order (for example, 40 ug/ml Y plus 10 ng/ml T; 20 ug/ml Y plus 5 ng/ml T, etc. please see FIG. 28). Cells growth under these conditions was determined by the MTT assay.
as §1

tumor growth = assay: MTT anticancer activity of Y, X and hydrolysis products (FIG. 4C); assay type: cell-based
Description: as §2
(A) Alkaline Hydrolysis of Xanifolia-Y: 20 mg of Xanifolia-Y was dissolved in 0.5 mL of 1M NaOH. The solution was incubated in an 80° C. water bath for 4 hours. It was cooled to room temperature before being neutralized with 0.5 mL 1 N HCl (adjusted pH to about 3). The mixture was extracted with 2 mL 1-butanol 3 times. The butanol fractions were collected and lyophilized. The hydrolyzed saponin was further purified with HPLC in a C-18 column eluted with 25% acetonitrile.
(B) Acid Hydrolysis of Xanifolia-Y: 15 mg Xanifolia-Y was dissolved in 1 mL of Methanol. 1 mL of 2N HCl was then added. The mixture was refluxed in an 80° C. water bath for 5 hours. The solution was then neutralized by adding 2 mL of 1N NaOH (to a final pH 3-4). The aglycone was then extracted with ethylacetate 3 mL×3. The extracts were collected and pooled. Further isolation of aglycone (sugar-removed Xanifolia-Y) was achieved by HPLC with isocratic elution of 80% acetonitrile.

[7] = test system: swelling of rats' feet induced by Carrageenin; assay: Carrageenin-induced swollen feet model; assay type: in vivo, SD rats; settings: positive control 10.0 mg/kg fed once;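 note: percent increase in foot volume over pre-inflammation volume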
Description: SD rats, male, weighing 163±18 g were used in the experiment. The tested animals are allowed to acclimate for a week. The rats drink water freely. The rats were randomly divided into 5 groups: control, positive control and 3 test groups, and each group had 8 rats. The dose for 3 groups of rats are 10, 20 and 40 mg/kg. Indometacin for the positive control is 10 mg/kg and fed once after modeling. The dose of CMC-Na for the control group is the same as each test group and fed into the stomach once a day before modeling for 5 days. The tested drug was fed into the stomach 10 minutes before the animal modeling (1 mL/100 g). The volumes of right foot of each rat were measured 0.5, 1, 2 and 4 hours before and after modeling. The volumes of the right hind feet were measured at a different time, 10 minutes after inflammation induced by subcutaneous injection (with syringe needle 7) of 0.05 mL of the 1% of Carrageenin/normal saline mixture into the feet. The Rate of swelling of the feet was calculated, compared with the controls and subject to a student t-test. Rate of swelling (E) (%)=Ltn−Lt0/Lt0×100% • Ltn: volume of foot after the inflammation • Lt0: volume of foot before the inflammation

C/C=C(/C)C(=O)O[C@H]1[C@H](O)[C@@]2(COC(=O)C(C)CC)C(CC1(C)C)C1=CCC3[C@@]4(C)CC[C@H](O[C@@H]5OC(C(=O)O)[C@@H](O)C(O[C@@H]6O[C@@H](CO)C(O)C6O)C5O[C@@H]5OC(CO)[C@H](O)C(O)C5O)C(C)(C)C4CC[C@@]3(C)[C@]1(C)[C@@H](O)[C@H]2O (stereo partly drawn) [Xanifolia Y7, 3-O-[β-D-galactopyranosyl-(1→2)]-α-L-arabinofuranosyl-(1→3)-β-D-glucuronopyranosyl-21-O-angeloyl-28-O-2-methylbutanoyl-3β, 15α, 16α, 21β, 22α, 28-hexahydroxyolean-12-ene]
inhibition at 10 µg/mL ([1]; Homo sapiens, NCI-H460, H460 cells): 18%
inhibition at 10 µg/mL ([2]; Homo sapiens, HepG2, HepG2 cells): 10%
inhibition at 10 µg/mL ([3]; Homo sapiens): 60%
inhibition at 10 µg/mL ([4]; 10 ug/ml): 34%
inhibition at 10 µg/mL ([5]; Homo sapiens, T98G, 10 ug/ml): 24%

CC=C(C)C(=O)OC1C(OC(=O)c2ccccc2)C(C)(C)CC2C3=CCC4C5(C)CCC(OC6OC(C(=O)OC)C(O)C(OC7OCC(O)C(O)C7O)C6OC6OC(CO)C(O)C(O)C6O)C(C)(C)C5CCC4(C)C3(C)CC(O)C21CO [Ba4, 3-O-[β-D-galactopyranosyl(1→2)]-β-D-xylopyranosyl (1→3)-β-D-methylglucuronopyranosyl-21-O-benzoyl, 22-O-angeloyl-3β, 15α, 21β, 22α, 28-pentahydroxyolean-12-ene]
% inhibition of Fibronectin secretion ([1]; H460 cells): 18%
% inhibition of Fibronectin secretion ([6]; 10 ug/ml): 10%
% inhibition of Fibronectin secretion [2]: 28%
% inhibition of Fibronectin secretion [3]: 30%
% inhibition of Fibronectin secretion ([4]; ES2 cells, 10 ug/ml): 28%
% inhibition of Fibronectin secretion ([5]; 10 ug/ml): 24%

beta-Escin [reference compound]
% inhibition of Fibronectin secretion ([6]; 20 ug/ml): 17%
% inhibition of Fibronectin secretion ([2]; listed as ES): have inhibition effect
% inhibition of Fibronectin secretion ([2]; listed as β-ES): 44%
% inhibition of Fibronectin secretion [3]: 47%
growth of cells compared to the DMSO control (MTT) (ES2(ovarian) cells; ES2, 10 ug/ml (F13)): 90%
growth of cells compared to the DMSO control (MTT) (ES2(ovarian) cells; ES2, 20 ug/ml (F13)): 82%
% inhibition of Fibronectin secretion ([4]; ES2 cells, 10 ug/ml): 7%
Fibronectin secreted / FN band intensity, % of DMSO control ([4]; ES2 cells, 10 ug/ml): 93%
% inhibition of Fibronectin secretion ([4]; ES2 cells, 10 ug/ml, listed as β-ES): 19%
% inhibition of Fibronectin secretion ([4]; ES2 cells, 20 ug/ml): 48%
Fibronectin secreted / FN band intensity, % of DMSO control ([4]; ES2 cells, 20 ug/ml): 52%
% inhibition of Fibronectin secretion ([5]; 20 ug/ml): 66%

CC1O[C@@H](OC2[C@H](OC3[C@H](O[C@H]4C(O[C@@H]5OC(CO)[C@H](O)[C@@H](O)C5O)[C@H](O[C@H]5CC[C@@]6(C)C(CC[C@]7(C)C6CC[C@]68O[C@H](O)[C@]9(C6CC(C)(C)[C@@H](O)[C@@H]9O)[C@H](O)C[C@]87C)C5(C)C)OC(C(=O)O)[C@H]4O)OC(CO)[C@H](O)[C@H]3O)OC(C)[C@H](O)[C@@H]2O)C(O)[C@@H](O)[C@H]1O (some centres unmarked) [AKOH-Mb5]
anticancer activity after alkaline hydrolysis (tumor growth): lost anticancer activity

CC(=O)O[C@H]1C(=O)[C@@]2(C)[C@H]([C@H](OC(=O)c3ccccc3)[C@]3(O)C[C@H](OC(=O)[C@H](O)[C@@H](NC(=O)c4ccccc4)c4ccccc4)C(C)=C1C3(C)C)[C@]1(OC(C)=O)CO[C@@H]1C[C@@H]2O [Paclitaxel, reference compound]
viable cells by MTT units vs DMSO control (ES2(ovarian) cells; ES2, 10 ng/ml): 94%
viable cells by MTT units vs DMSO control (ES2(ovarian) cells; ES2, 50 ng/ml): 91%
IC50 (ES2(ovarian) cells; ES2 cells, used singly): 1.25 ng/mL (≈ 1.46 nM)
IC50 (ES2(ovarian) cells; Homo sapiens, ES-2, ES2 cells, combined with Xanifolia-Y, read-out: IC50 value for Paclitaxel when both drugs were used): 0.625 ng/mL
IC50 (ES2(ovarian) cells; Homo sapiens, ES-2, ES2 cells, used singly, read-out: IC50): 1.5 ng/mL (≈ 1.76 nM)
Fibronectin secreted into medium, % of DMSO control ([4]; ES2 cells, 10 ng/ml): 105%
Fibronectin secreted into medium, % of DMSO control ([4]; ES2 cells, 50 ng/ml): 97%
inhibition of Fibronectin secretion ([4]; ES2 cells, 10 to 50 ng/ml): no inhibition

COc1ccc2c(c1)c(CC(=O)O)c(C)n2C(=O)c1ccc(Cl)cc1 [Indometacin, reference compound]
Swelling rate after administration (%) ([7]; 0.5 hour): 11.8%
Swelling rate after administration (%) ([7]; 1 hour): 14.7%
Swelling rate after administration (%) ([7]; 2 hours): 12.8%
Swelling rate after administration (%) ([7]; 4 hours): 10.7%

C/C=C(/C)C(=O)O[C@H]1[C@H](OC(=O)/C(C)=C\C)[C@@]2(CO)C(CC1(C)C)C1=CCC3[C@@]4(C)CC[C@H](O[C@@H]5OC(C(=O)O)[C@@H](O)C(O)C5O[C@@H]5OC(CO)[C@H](O)C(O)C5O)C(C)(C)C4CC[C@@]3(C)[C@]1(C)[C@@H](O)[C@H]2O (some centres unmarked) [Xanifolia Y5]
% inhibition of Fibronectin secretion [2]: have inhibition effect
inhibition at 10 µg/mL ([4]; 10 ug/ml): 68%
